The assay addresses T1, mouse NPY-Y5 receptors (mNPY-Y5) (Mus musculus, UniProt O70342).
T1 construct: The full-length cDNA which contains the mouse NPY-Y5 (mNPY-Y5) receptor coding was amplified from mouse brain cDNA; expressed in transfected cells
T1 sequence (O70342 1-466): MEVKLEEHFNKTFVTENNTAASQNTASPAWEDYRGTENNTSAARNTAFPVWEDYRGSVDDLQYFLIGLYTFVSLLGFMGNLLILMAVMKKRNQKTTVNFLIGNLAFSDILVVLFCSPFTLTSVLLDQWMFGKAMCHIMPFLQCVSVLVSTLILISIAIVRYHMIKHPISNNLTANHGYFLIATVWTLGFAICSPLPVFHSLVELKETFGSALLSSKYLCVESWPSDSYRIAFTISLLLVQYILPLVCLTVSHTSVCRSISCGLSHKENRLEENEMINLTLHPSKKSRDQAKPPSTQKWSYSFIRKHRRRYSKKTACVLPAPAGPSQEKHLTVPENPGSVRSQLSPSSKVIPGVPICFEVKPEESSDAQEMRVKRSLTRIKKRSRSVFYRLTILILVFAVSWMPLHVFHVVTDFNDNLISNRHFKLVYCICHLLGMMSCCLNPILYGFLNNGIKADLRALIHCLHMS
The assay is described as follows: Radioligand competition binding (125I-PYY) on membranes of HEK293 cells expressing recombinant mouse NPY-Y5 receptor. As to conditions: displacement of 100 pM 125I-labeled PYY, 1 h at 22° C., read-out: NPY5 IC50. An excerpt: The full-length cDNA which contains the mouse NPY-Y5 (mNPY-Y5) receptor coding was amplified from mouse brain cDNA using specific primers, which were custom-made on the basis of published sequences, and employing Pfu DNA polymerase (Stratagene). The amplification product was subcloned into a mammalian expression vector pcDNA3 using EcoRI and XhoI restriction sites. Positive clones were sequenced; one clone, which contained the published sequence, was selected for preparing stable cell clones.
Human embryonic kidney 293 (HEK293) cells were transfected with 10 μg of mNPY5 DNA using Lipofectamine reagent (Gibco BRL) in accordance with the manufacturer's instructions. Two days after the transfection, the geneticin selection (1 mg/ml) was initiated and several stable clones were isolated. One of the clones was used for further pharmacological characterization.
Human embryonic kidney cells (HEK293) which express recombinant mouse NPY-Y5 receptors (mNPY-Y5) were disrupted by being frozen/thawed three times in hypotonic Tris buffer (5 mM, pH 7.4, 1 mM MgCl2), after which they were homogenized and centrifuged at 72 000 G for 15 minutes. The precipitate was washed twice with Tris buffer (pH 7.4) containing 25 mM MgCl2, 250 mM sucrose, 0.1 mM phenylmethylsulfonyl fluoride and 0.1 mM 1,10-phenanthroline, then resuspended in the same buffer and stored in aliquots at −80° C. The protein was determined by the Lowry method using bovine serum albumin (BSA) as the standard.
The competition binding analysis was carried out in 250 μl of 25 mM Hepes buffer (pH 7.4, 2.5 mM CaCl2, 1 mM MgCl2, 1% bovine serum albumin and 0.01% sodium azide) which 5 μg of protein, 100 pM ^125I-labeled peptide YY (PYY) and 10 μl of a DMSO solution containing increasing quantities of DMSO solution containing unlabeled test compound. After a one-hour incubation at 22° C., the bound ligand was separated from the unbound ligand by means of filtration through a glass fiber filter. Nonspecific binding was determined in the presence of 1 μM unlabeled PYY. Specific binding is defined as the difference between total binding and nonspecific binding. An IC50 value is defined as the concentration of the antagonist which displaces 50% of the ^125I-labeled […]. This concentration is determined by linear regression analysis following logit/log transformation of the binding values.
In general terms: Loss of bound radioactivity is the signal in a displacement assay; it reports binding, not function.
On to `Cc1ccc(C)c(N2CC(C(=O)Nc3ccc(N(C)c4ccccc4)cc3)CC2=O)c1` (racemic) [rac. N-[4-(Methylphenylamino)phenyl]-1-(2,5-dimethylphenyl)-5-oxopyrrolidine-3-carboxamide], for which the 50% inhibitory concentration (IC50) (commonly the concentration needed to halve the response being measured) stood at 26 nM.

For the compound `CCn1c2ccccc2c2cc(NC(=O)C3CC(=O)N(Cc4ccco4)C3)ccc21` (racemic) [rac. N-(9-Ethyl-9H-carbazol-3-yl)-1-furan-2-ylmethyl-5-oxopyrrolidine-3-carboxamide], the IC50 was 10 nM.

As for `Cc1ccc(C)c(N2CC(C(=O)Nc3ccc(N(C)c4nc(C)cc(C)n4)cc3)CC2=O)c1` (racemic) [rac. N-{4-[(4,6-Dimethylpyrimidin-2-yl)methylamino]phenyl}-1-(2,5-dimethylphenyl)-5-oxopyrrolidine-3-carboxamide], the concentration for half-maximal inhibition (IC50) stood at 20 nM.

Turning to `Cc1cc(C)nc(Nc2ccc(NC(=O)C3CC(=O)N(c4ccccc4C(C)C)C3)cc2)n1` (racemic) [rac. N-[4-(4,6-Dimethylpyrimidin-2-ylamino)phenyl]-1-(2-isopropylphenyl)-5-oxopyrrolidine-3-carboxamide], the half-inhibitory concentration (IC50) was 25 nM.

For the compound `CC(C)c1ccccc1N1CC(C(=O)Nc2ccc(N(C)c3ccccc3)cc2)CC1=O` (racemic) [rac. N-[4-(Methylphenylamino)phenyl]-1-(2-isopropylphenyl)-5-oxopyrrolidine-3-carboxamide], the IC50 amounted to 20 nM.

As to `CCn1c2ccccc2c2cc(NC(=O)C3CC(=O)N(C4CCCCCC4)C3)ccc21` (racemic) [rac. N-(9-Ethyl-9H-carbazol-3-yl)-1-cycloheptyl-5-oxopyrrolidine-3-carboxamide], the concentration for half-maximal inhibition (IC50) amounted to 15 nM.

On to `Cc1ccc(C)c(N2CC(C(=O)Nc3ccc(Nc4ccccc4)cc3)CC2=O)c1` (racemic) [rac. N-(4-Phenylaminophenyl)-1-(2,5-dimethylphenyl)-5-oxopyrrolidine-3-carboxamide], for which the IC50 turned out to be 30 nM.

With `COc1ccc(C)c(N2CC(C(=O)Nc3ccc(Nc4nc(C)cc(C)n4)cc3)CC2=O)c1` (racemic) [rac. N-[4-(4,6-Dimethylpyrimidin-2-ylamino)phenyl]-1-(5-methoxy-2-methylphenyl)-5-oxopyrrolidine-3-carboxamide], the IC50 is 26 nM.

As to `Cc1ccc(C)c(N2CC(C(=O)Nc3ccc(-c4ccccc4)cc3)CC2=O)c1` (racemic) [rac. N-(Biphenyl-4-yl)-1-(2,5-dimethylphenyl)-5-oxopyrrolidine-3-carboxamide], the IC50 came out at 34 nM.

Take `Cc1ccc(C)c(N2CC(C(=O)Nc3ccc(N(c4ccccc4)C(C)C)cc3)CC2=O)c1` (racemic) [rac. N-[4-(Isopropylphenylamino)phenyl]-1-(2,5-dimethylphenyl)-5-oxopyrrolidine-3-carboxamide]: the IC50 worked out at 22 nM.

Consider `CCN(c1ccc(NC(=O)C2CC(=O)N(c3cc(OC)ccc3C)C2)cc1)c1nc(C)cc(C)n1` (racemic) [rac. N-{4-[(4,6-Dimethylpyrimidin-2-yl)ethylamino]phenyl}-1-(5-methoxy-2-methylphenyl)-5-oxopyrrolidine-3-carboxamide], for which the half-inhibitory concentration (IC50) turned out to be 15 nM.

As for `CCn1c2ccccc2c2cc(NC(=O)C3CC(=O)N(c4cccc(F)c4)C3)ccc21` (racemic) [rac. N-(9-Ethyl-9H-carbazol-3-yl)-1-(3-fluorophenyl)-5-oxopyrrolidine-3-carboxamide], the IC50 was found to be 30 nM.

As to `CCn1c2ccccc2c2cc(NC(=O)C3CC(=O)N(CCN4CCOCC4)C3)ccc21` (racemic) [rac. N-(9-Ethyl-9H-carbazol-3-yl)-1-(2-morpholin-4-ylethyl)-5-oxopyrrolidine-3-carboxamide], the half-inhibitory concentration (IC50) worked out at 10 nM.

For `CCOC(=O)CN(c1ccccc1)c1ccc(NC(=O)C2CC(=O)N(c3cc(OC)ccc3C)C2)cc1` (racemic) [rac. Ethyl [(4-{[1-(5-methoxy-2-methylphenyl)-5-oxopyrrolidine-3-carbonyl]amino}phenyl)phenylamino]acetate], the IC50 was 46 nM.

Turning to `Cc1ccc(C)c(N2CC(C(=O)Nc3ccc(C(C)C)cc3)CC2=O)c1` (racemic) [rac. N-(4-Isopropylphenyl)-1-(2,5-dimethylphenyl)-5-oxopyrrolidine-3-carboxamide], the IC50 worked out at 45 nM.

For the compound `CCN(c1ccc(NC(=O)C2CC(=O)N(CCc3ccccn3)C2)cc1)c1nc(C)cc(C)n1` (racemic) [rac. N-{4-[(4,6-Dimethylpyrimidin-2-yl)ethylamino]phenyl}-5-oxo-1-(2-pyridin-2-ylethyl)pyrrolidine-3-carboxamide], the concentration for half-maximal inhibition (IC50) stood at 24 nM.

In the case of `CCn1c2ccccc2c2cc(NC(=O)C3CC(=O)N(CCc4ccccc4)C3)ccc21` (racemic) [rac. N-(9-Ethyl-9H-carbazol-3-yl)-5-oxo-1-phenethylpyrrolidine-3-carboxamide], the IC50 was found to be 12 nM.

On to `CCn1c2ccccc2c2cc(NC(=O)C3CC(=O)N(Cc4ccc(Cl)cc4)C3)ccc21` (racemic) [rac. N-(9-Ethyl-9H-carbazol-3-yl)-1-(4-chlorobenzyl)-5-oxopyrrolidine-3-carboxamide], for which the IC50 is 10 nM.

`CCOC(=O)CN(c1ccccc1)c1ccc(NC(=O)C2CC(=O)N(c3cc(C)ccc3C)C2)cc1` (racemic) [rac. Ethyl [(4-{[1-(2,5-dimethylphenyl)-5-oxopyrrolidine-3-carbonyl]amino}phenyl)phenylamino]acetate]: the concentration for half-maximal inhibition (IC50) was 13 nM.

In the case of `Cc1cc(C)nc(N(C)c2ccc(NC(=O)C3CC(=O)N(c4ccccc4C(C)C)C3)cc2)n1` (racemic) [rac. N-{4-[(4,6-Dimethylpyrimidin-2-yl)methylamino]phenyl}-1-(2-isopropylphenyl)-5-oxopyrrolidine-3-carboxamide], the IC50 was 31 nM.

On to `CC(C)c1ccccc1N1CC(C(=O)Nc2ccc(N(c3ccccc3)C(C)C)cc2)CC1=O` (racemic) [rac. N-[4-(Isopropylphenylamino)phenyl]-1-(2-isopropylphenyl)-5-oxopyrrolidine-3-carboxamide], for which the 50% inhibitory concentration (IC50) stood at 34 nM.

`CCN(c1ccc(NC(=O)C2CC(=O)N(c3cc(C)ccc3C)C2)cc1)C(C)C` (racemic) [rac. N-[4-(Ethylisopropylamino)phenyl]-1-(2,5-dimethylphenyl)-5-oxopyrrolidine-3-carboxamide]: the IC50 amounted to 10 nM.

As for `CCn1c2ccccc2c2cc(NC(=O)C3CC(=O)N(c4ccccc4)C3)ccc21` (racemic) [rac. N-(9-Ethyl-9H-carbazol-3-yl)-5-oxo-1-phenylpyrrolidine-3-carboxamide], the half-inhibitory concentration (IC50) was 21 nM.

Consider `CCn1c2ccccc2c2cc(NC(=O)C3CC(=O)N(c4ccc(C(C)C)cc4)C3)ccc21` (racemic) [rac. N-(9-Ethyl-9H-carbazol-3-yl)-1-(4-isopropylphenyl)-5-oxopyrrolidine-3-carboxamide], for which the IC50 was determined as 30 nM.

Turning to `COc1ccc(C)c(N2CC(C(=O)Nc3ccc(N(C)c4nc(C)cc(C)n4)cc3)CC2=O)c1` (racemic) [rac. N-{4-[(4,6-Dimethylpyrimidin-2-yl)methylamino]phenyl}-1-(5-methoxy-2-methylphenyl)-5-oxopyrrolidine-3-carboxamide], the half-inhibitory concentration (IC50) turned out to be 41 nM.

As for `CCn1c2ccccc2c2cc(NC(=O)C3CC(=O)N(C4Cc5ccccc5C4)C3)ccc21` (racemic) [rac. N-(9-Ethyl-9H-carbazol-3-yl)-1-indan-2-yl-5-oxopyrrolidine-3-carboxamide], the IC50 is 32 nM.

The values above are taken from patent publication US7067549B2, “Pyrrolidone carboxamides” (Actelion Pharmaceuticals AG, priority 2001, dated 2006).
